Reference: US20250382344A1, “Soluble GLP1/GIP/NPY2 Receptor Triple Agonists” (Boehringer Ingelheim International GmH, priority 2024, published 2025)
Read-outs that look alike come from different tables or passages of the source.

Columns and labels:
[1] = Solubility in 0.1 M phosphate buffer at pH 7; type: physicochemical; conditions: 0.1 M phosphate buffer at pH 7, 10 mg/mL final peptide concentration, shaking 2 hours at room temperature, peptides as TFA-salts, measured sample pH 6.5-7.0; for solubility: read-out: Solubility
[2] = Mouse PK after intravenous application; type: in vivo; conditions: plasma, male NMRI mice, intravenous 30-60 nmol/kg, non-compartmental analysis
Experimental: Pharmacokinetic parameters of the peptides were determined after intravenous application to NMRI mice (Naval Medical Research Institute mice). Male NMRI mice were obtained from Janvier Laboratories (France) weighing 30 g to 40 g. Mice were housed in standard cages with a 12:12 hours light:dark cycle and standard food and water access ad libitum. Each test peptide was dissolved in 50 mM phosphate buffer (pH 7.4)/3.5% mannitol. Intravenous application of 30-60 nmol/kg was performed via the tail vein. Serial blood samples from conscious mice were collected from the saphenous vein in EDTA-containing vials at different time points up to 56 hours post-dosing. Subsequently, plasma was prepared by centrifugation for 5 minutes at approximately 5000 rpm and stored at −20° C. until quantification of the peptide plasma levels by liquid chromatography mass spectrometry (LC-MS). Individual plasma concentration-time profiles were analysed by a non-compartmental approach and the resulting pharmacokinetic parameters were calculated.

[3] = biological target: T1, hGLP1R (Homo sapiens, UniProt P43220); assay: hGLP1R CreLuc assay in 0.5% and 100% plasma (HEK-293 CRE-luciferase reporter cells); type: cell-based; conditions: HEK-293 reporter cells
T1 construct: expressed in transfected cells; host or cells: HEK-293 CRE-luciferase reporter cells
T1 sequence (P43220 24-463): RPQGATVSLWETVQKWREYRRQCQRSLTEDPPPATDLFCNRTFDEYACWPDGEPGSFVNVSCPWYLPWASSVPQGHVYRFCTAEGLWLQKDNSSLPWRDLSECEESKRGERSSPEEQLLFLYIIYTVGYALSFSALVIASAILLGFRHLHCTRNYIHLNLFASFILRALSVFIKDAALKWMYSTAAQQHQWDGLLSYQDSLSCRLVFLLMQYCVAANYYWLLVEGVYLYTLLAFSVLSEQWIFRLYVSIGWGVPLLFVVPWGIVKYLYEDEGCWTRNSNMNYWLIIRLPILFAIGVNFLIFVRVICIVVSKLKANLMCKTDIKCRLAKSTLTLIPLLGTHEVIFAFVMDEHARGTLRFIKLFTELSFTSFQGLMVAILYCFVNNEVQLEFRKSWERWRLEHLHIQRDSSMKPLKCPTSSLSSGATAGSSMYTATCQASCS

[4] = biological target: T2, hGIPR (Homo sapiens, UniProt P48546); assay: hGIPR CreLuc assay in 0.5% and 100% plasma (CHO CRE-luciferase reporter cells); type: cell-based
T2 construct: expressed in transfected cells; host or cells: CHO CRE-luciferase reporter cells
T2 sequence (P48546 22-466): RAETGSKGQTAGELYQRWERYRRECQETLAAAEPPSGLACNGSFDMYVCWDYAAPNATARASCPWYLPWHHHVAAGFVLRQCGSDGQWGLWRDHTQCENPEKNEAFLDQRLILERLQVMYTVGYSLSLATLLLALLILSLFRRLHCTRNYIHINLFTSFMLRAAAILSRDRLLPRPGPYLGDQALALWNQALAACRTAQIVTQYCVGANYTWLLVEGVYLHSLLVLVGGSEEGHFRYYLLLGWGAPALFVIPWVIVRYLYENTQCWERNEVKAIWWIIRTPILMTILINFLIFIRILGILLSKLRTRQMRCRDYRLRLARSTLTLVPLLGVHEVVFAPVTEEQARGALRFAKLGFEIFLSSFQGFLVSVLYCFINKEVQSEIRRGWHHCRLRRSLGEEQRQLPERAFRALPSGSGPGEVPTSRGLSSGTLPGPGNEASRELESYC

[5] = 0.5% human plasma, read-out: hGLP1R 0.5% hP
[6] = 0.5% human plasma, read-out: hGIPR 0.5% hP

SMILES | solubility [1] [µg/mL] | MRT [2] [h] | EC50 [3, 5] [nM] | EC50 ([3]; 100% human plasma, read-out: hGLP1R 100% hP) [nM] | solubility at 2 h [1] [µg/mL] | EC50 [4, 6] [nM] | EC50 ([4]; 100% human plasma, read-out: hGIPR 100% hP) [nM]
CC[C@H](C)[C@H](NC(=O)[C@H](CC(C)C)NC(=O)[C@H](Cc1c[nH]cn1)NC(=O)[C@H](CCCNC(=N)N)NC(=O)[C@@H](NC(=O)[C@H](Cc1ccccc1)NC(=O)[C@H](C)NC(=O)C(C)(C)NC(=O)[C@H](CCC(N)=O)NC(=O)[C@H](C)NC(=O)[C@H](CCC(N)=O)NC(=O)[C@H](CCCCN)NC(=O)[C@H](CC(=O)O)NC(=O)[C@H](CC(C)C)NC(=O)C(C)(C)NC(=O)[C@@H](NC(=O)[C@H](CO)NC(=O)[C@H](Cc1ccc(O)cc1)NC(=O)[C@H](CC(=O)O)NC(=O)[C@H](CO)NC(=O)[C@@H](NC(=O)[C@H](Cc1ccccc1)NC(=O)[C@@H](NC(=O)CNC(=O)[C@H](CCC(=O)O)NC(=O)C(C)(C)NC(=O)[C@@H](N)Cc1ccc(O)cc1)[C@@H](C)O)[C@@H](C)O)[C@@H](C)CC)C(C)C)C(=O)N[C@@H](CC(N)=O)C(=O)N[C@@H](CCCCNC(=O)[C@@H](N)CCCCNC(=O)CC[C@H](NC(=O)[C@H](CCC(=O)O)NC(=O)CC[C@H](NC(=O)CC[C@H](NC(=O)CC[C@H](NC(=O)CC[C@H](NC(=O)CCCCCCCCCCCCCCCCCCC(=O)O)C(=O)O)C(=O)O)C(=O)O)C(=O)O)C(=O)O)C(=O)NC(C)(C)C(=O)N[C@H](C(=O)N[C@@H](CCCNC(=N)N)C(=O)N[C@@H](CCC(N)=O)C(=O)N[C@@H](CCCNC(=N)N)C(=O)N[C@@H](Cc1ccc(O)cc1)C(N)=O)[C@@H](C)O [Compound 74, Y-Aib-E-G-T-F-T-S-D-Y-S-I-Aib-L-D-K-Q-A-Q-Aib-A-F-V-R-H-L-I-N-K(1,3)-Aib-T-R-Q-R-Y-NH2.C20DA-gGlu-gGlu-gGlu-gGlu-gGlu-gGlu-eLys(1,2)] | 8600 | 16.4 |  |  |  |  | 
CC[C@H](C)[C@H](NC(=O)[C@H](CC(C)C)NC(=O)[C@H](Cc1c[nH]cn1)NC(=O)[C@H](CCCNC(=N)N)NC(=O)[C@@H](NC(=O)[C@H](Cc1ccccc1)NC(=O)[C@H](C)NC(=O)C(C)(C)NC(=O)[C@H](CCC(N)=O)NC(=O)[C@H](C)NC(=O)[C@H](CCC(N)=O)NC(=O)[C@H](CCCCN)NC(=O)[C@H](CCC(=O)O)NC(=O)[C@H](CC(C)C)NC(=O)C(C)(C)NC(=O)[C@@H](NC(=O)[C@H](CO)NC(=O)[C@H](Cc1ccc(O)cc1)NC(=O)[C@H](CC(=O)O)NC(=O)[C@H](CO)NC(=O)[C@@H](NC(=O)[C@H](Cc1ccccc1)NC(=O)[C@@H](NC(=O)CNC(=O)[C@H](CCC(=O)O)NC(=O)C(C)(C)NC(=O)[C@@H](N)Cc1ccc(O)cc1)[C@@H](C)O)[C@@H](C)O)[C@@H](C)CC)C(C)C)C(=O)N[C@@H](CC(N)=O)C(=O)N[C@@H](CCCCNC(=O)CC[C@H](NC(=O)CC[C@H](NC(=O)CC[C@H](NC(=O)CC[C@H](NC(=O)CCCCCCCCCCCCCCCCC(=O)O)C(=O)O)C(=O)O)C(=O)O)C(=O)O)C(=O)NC(C)(C)C(=O)N[C@H](C(=O)N[C@@H](CCCNC(=N)N)C(=O)N[C@@H](CCC(N)=O)C(=O)N[C@@H](CCCNC(=N)N)C(=O)N[C@@H](Cc1ccc(O)cc1)C(N)=O)[C@@H](C)O [Compound 77, Y-Aib-E-G-T-F-T-S-D-Y-S-I-Aib-L-E-K-Q-A-Q-Aib-A-F-V-R-H-L-I-N-K(1,3)-Aib-T-R-Q-R-Y-NH2.C18DA-gGlu-gGlu-gGlu-gGlu(1,2)] |  | 7.4 | 0.4 | 1.8 | 400 | 0.3 | 
CC[C@H](C)[C@H](NC(=O)[C@H](CC(C)C)NC(=O)[C@H](Cc1c[nH]cn1)NC(=O)[C@H](CCCNC(=N)N)NC(=O)[C@@H](NC(=O)[C@H](Cc1ccccc1)NC(=O)[C@H](CCC(=O)O)NC(=O)C(C)(C)NC(=O)[C@H](CCC(N)=O)NC(=O)[C@H](C)NC(=O)[C@H](CCC(N)=O)NC(=O)[C@H](CCCCN)NC(=O)[C@H](CCC(=O)O)NC(=O)[C@H](CC(C)C)NC(=O)C(C)(C)NC(=O)[C@@H](NC(=O)[C@H](CO)NC(=O)[C@H](Cc1ccc(O)cc1)NC(=O)[C@H](CC(=O)O)NC(=O)[C@H](CO)NC(=O)[C@@H](NC(=O)[C@H](Cc1ccccc1)NC(=O)[C@@H](NC(=O)CNC(=O)[C@H](CCC(=O)O)NC(=O)C(C)(C)NC(=O)[C@@H](N)Cc1ccc(O)cc1)[C@@H](C)O)[C@@H](C)O)[C@@H](C)CC)C(C)C)C(=O)N[C@@H](CC(N)=O)C(=O)N[C@@H](CCCCNC(=O)CC[C@H](NC(=O)CC[C@H](NC(=O)CC[C@H](NC(=O)CC[C@H](NC(=O)CCCCCCCCCCCCCCCCC(=O)O)C(=O)O)C(=O)O)C(=O)O)C(=O)O)C(=O)NC(C)(C)C(=O)N[C@H](C(=O)N[C@@H](CCCNC(=N)N)C(=O)N[C@@H](CCC(N)=O)C(=O)N[C@@H](CCCNC(=N)N)C(=O)N[C@@H](Cc1ccc(O)cc1)C(N)=O)[C@@H](C)O [Compound 79, Y-Aib-E-G-T-F-T-S-D-Y-S-I-Aib-L-E-K-Q-A-Q-Aib-E-F-V-R-H-L-I-N-K(1,3)-Aib-T-R-Q-R-Y-NH2.C18DA-gGlu-gGlu-gGlu-gGlu(1,2)] | 4200 | 7 |  |  |  |  | 
CC[C@H](C)[C@H](NC(=O)[C@H](CC(C)C)NC(=O)[C@H](Cc1c[nH]cn1)NC(=O)[C@H](CCCNC(=N)N)NC(=O)[C@@H](NC(=O)[C@H](Cc1ccccc1)NC(=O)[C@H](C)NC(=O)C(C)(C)NC(=O)[C@H](CCC(N)=O)NC(=O)[C@H](C)NC(=O)[C@H](CCC(N)=O)NC(=O)[C@H](CCCCN)NC(=O)[C@H](CCC(=O)O)NC(=O)[C@H](CC(C)C)NC(=O)C(C)(C)NC(=O)[C@@H](NC(=O)[C@H](CO)NC(=O)[C@H](Cc1ccc(O)cc1)NC(=O)[C@H](CC(=O)O)NC(=O)[C@H](CO)NC(=O)[C@@H](NC(=O)[C@H](Cc1ccccc1)NC(=O)[C@@H](NC(=O)CNC(=O)[C@H](CCC(=O)O)NC(=O)C(C)(C)NC(=O)[C@@H](N)Cc1ccc(O)cc1)[C@@H](C)O)[C@@H](C)O)[C@@H](C)CC)C(C)C)C(=O)N[C@@H](CC(N)=O)C(=O)N[C@@H](CCCCNC(=O)[C@@H](N)CCCCNC(=O)CC[C@H](NC(=O)CC[C@H](NC(=O)CC[C@H](NC(=O)CC[C@H](NC(=O)CC[C@H](NC(=O)CC[C@H](NC(=O)CC[C@H](NC(=O)CCCCCCCCCCCCCCCCC(=O)O)C(=O)O)C(=O)O)C(=O)O)C(=O)O)C(=O)O)C(=O)O)C(=O)O)C(=O)NC(C)(C)C(=O)N[C@H](C(=O)N[C@@H](CCCNC(=N)N)C(=O)N[C@@H](CCC(N)=O)C(=O)N[C@@H](CCCNC(=N)N)C(=O)N[C@@H](Cc1ccc(O)cc1)C(N)=O)[C@@H](C)O [Compound 121, Y-Aib-E-G-T-F-T-S-D-Y-S-I-Aib-L-E-K-Q-A-Q-Aib-A-F-V-R-H-L-I-N-K(1,3)-Aib-T-R-Q-R-Y-NH2.C18DA-gGlu-gGlu-gGlu-gGlu-gGlu-gGlu-gGlu-eLys(1,2)] |  | 10 | 0.4 |  | 4200 | 0.2 | 2.8
